Data on eight compounds can be found in paper PMC7018746, “An efficient and targeted synthetic approach towards new highly substituted 6-amino-pyrazolo[1,5-a]pyrimidines with α-glucosidase inhibitory activity” (Scientific Reports, 2020).

Series [1] in a line: Cytotoxicity studies, PANC-1. The class given is cell-based, human. The settings on record: human, PANC-1 pancreatic cancer cells. As for the experimental part: (§1) The cytotoxicity of some of potent compounds including 3d, 3m, 3v, and 3af was evaluated through use of the breast cancer cell line MDA-MB-231 and human pancreatic cancer cell line PANC-1.
The test system of series [2] is human pancreatic cancer cell line PANC-1. Description: Cytotoxicity studies, PANC-1. Format: cell-based. The settings on record: PANC-1, at concentration of 100 µM. As for the experimental part: as §1
Series [3] is described as follows: Cytotoxicity studies, MDA-MB-231. The class given is cell-based. The settings on record: human, MDA-MB-231 breast cancer cells. As for the experimental part:
as §1

Series [4] relates to breast cancer cell line MDA-MB-231. The experiment in a line: Cytotoxicity studies, MDA-MB-231. Format: cell-based. As to conditions: MDA-MB-231, at concentration of 100 µM. As for the experimental part: as §1
The target in series [5] is T1, α-glucosidase (Saccharomyces cerevisiae, UniProt P53341).
T1 construct: purchased Sigma-Aldrich
T1 sequence (P53341 whole entry): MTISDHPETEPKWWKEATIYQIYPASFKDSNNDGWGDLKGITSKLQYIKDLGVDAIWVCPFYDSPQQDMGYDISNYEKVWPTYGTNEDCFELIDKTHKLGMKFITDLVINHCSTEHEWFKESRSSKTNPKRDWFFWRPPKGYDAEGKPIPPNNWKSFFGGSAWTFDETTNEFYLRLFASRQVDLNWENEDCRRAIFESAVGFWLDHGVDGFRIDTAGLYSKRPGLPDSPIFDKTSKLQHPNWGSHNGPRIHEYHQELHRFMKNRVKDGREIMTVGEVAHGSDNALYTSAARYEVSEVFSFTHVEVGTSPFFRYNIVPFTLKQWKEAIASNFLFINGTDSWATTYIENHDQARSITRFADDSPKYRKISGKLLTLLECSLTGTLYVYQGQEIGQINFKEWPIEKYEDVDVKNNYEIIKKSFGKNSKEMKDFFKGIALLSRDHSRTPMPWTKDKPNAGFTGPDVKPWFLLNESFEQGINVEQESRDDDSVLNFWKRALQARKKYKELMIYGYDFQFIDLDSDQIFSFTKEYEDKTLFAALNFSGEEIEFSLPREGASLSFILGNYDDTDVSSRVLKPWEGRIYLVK
The experiment in a line: Enzyme kinetic studies (Lineweaver-Burk and secondary plots). The settings on record: for inhibition type: Lineweaver-Burk plot: Km increased, Vmax unchanged; for Ki: estimated from plot of Km versus inhibitor concentration, read-out: inhibition constant, Ki. The class given is biochemical. As for the experimental part:
The inhibition mode of the synthesized compounds 3 against α-glucosidase was investigated. […]. The inhibition type was indicated on the basis of Michaelis-Menten and Lineweaver-Burk plots. […] […]. The […] of enzyme solution (1 U/mL) was incubated with different concentrations (0, 5, 10, and 15 µM) of selected compounds for 15 min at 30 °C. The reaction was then started by adding different concentrations of substrate (p-nitrophenyl glucopyranoside, 1-10 mM), and change in absorbance was measured for 20 min at 405 nm by using spectrophotometer (Gen5, Power wave xs2, BioTek, America).

For series [6], the target named is T2, α-glucosidase (Saccharomyces cerevisiae, EC.3.2.1.20) (Saccharomyces cerevisiae, UniProt P53341).
T2 construct: purchased Sigma-Aldrich
T2 sequence (P53341 whole entry): as above
Description: biochemical. As to conditions: for IC50: mean ± SD, at least three experiments, read-out: IC50 (µM), in vitro α-glucosidase inhibitory activity. Format: biochemical. As for the experimental part:
α-Glucosidase enzyme (EC3.2.1.20, Saccharomyces cerevisiae, 20 U/mg) and substrate (p-nitrophenyl glucopyranoside) were purchased from Sigma-Aldrich. […] Finally, the change in absorbance was measured at 405 nm by using spectrophotometer (Gen5, Power wave xs2, BioTek, America). DMSO (10% final concentration) and acarbose were used respectively as control and standard drug. The percentage of enzyme inhibitionwas calculated and IC50 values were obtained from non-linear regression curve using the Logit method.

Where two headings read alike, the source gives them in different places.

The term IC50 denotes the concentration at which inhibition is half-maximal. The term Ki denotes the dissociation constant of the complex between target and ligand, obtained from inhibition or displacement. For the compound `Cc1ccc(-c2nc3c(C(=O)Nc4ccccc4)c(Nc4ccccc4)nn3c(-c3ccc(Br)cc3)c2N)cc1` [3d, 6-Amino-7-(4-bromophenyl)-N-phenyl-2-(phenylamino)-5-p-tolylpyrazolo[1,5-a]pyrimidine-3-carboxamide], the IC50 in series [1] was greater than 200 µM; in series [3], greater than 200 µM; in series [6] (Table 1, compounds 3a-z) it was 15.2 ± 0.4 µM. In addition, the cytotoxic activity entry in series [2] and in series [4] was “did not possess any cytotoxic activity” throughout. The inhibition type entry in series [5] is given as “competitive inhibition”. Moreover, in series [5], the Ki is 12 µM. The “fold more potent than acarbose” value in series [6] (ratio of α-glucosidase IC50 values vs acarbose) is “around 50 fold”.

As a reminder, the melting point is the temperature of the solid-liquid transition. In turn, `COc1ccc(NC(=O)c2c(Nc3ccccc3)nn3c(-c4ccc(Br)cc4)c(N)c(-c4ccc(C)cc4)nc23)cc1` [3m, 6-Amino-7-(4-bromophenyl)-N-(4-methoxyphenyl)-2-(phenylamino)-5-p-tolylpyrazolo[1,5-a]pyrimidine-3-carboxamide] registered a melting point of 282 to 283 °C. In series [1], this compound registered an IC50 greater than 200 µM. In addition, the cytotoxic activity result in series [2] is reported as “did not possess any cytotoxic activity”. Besides, the 50% inhibitory concentration (IC50) in series [3] was greater than 200 µM. In addition, the cytotoxic activity result in series [4] was “did not possess any cytotoxic activity”. Moreover, the half-inhibitory concentration (IC50) in series [6] (Table 1, compounds 3a-z) amounted to 24.7 ± 1.1 µM.

Consider `Cc1ccc(-c2nc3c(C(=O)Nc4ccc(Cl)cc4)c(Nc4ccccc4)nn3c(-c3ccc(Br)cc3)c2N)cc1` [3v, 6-Amino-7-(4-bromophenyl)-N-(4-chlorophenyl)-2-(phenylamino)-5-p-tolylpyrazolo[1,5-a]pyrimidine-3-carboxamide], for which the melting point lay in the range of 271 to 273 °C. The same compound showed a concentration for half-maximal inhibition (IC50) in series [1] greater than 200 µM. In series [2], the cytotoxic activity result is reported as “did not possess any cytotoxic activity”. The compound also returned an IC50 in series [3] greater than 200 µM. For the same compound, in series [4], the cytotoxic activity entry is reported as “did not possess any cytotoxic activity”. In addition, in series [6] (Table 1, compounds 3a-z), the 50% inhibitory concentration (IC50) stood at 17.6 ± 0.6 µM.

`COc1ccc(-c2nc3c(C(=O)Nc4ccccc4)c(Nc4ccccc4)nn3c(-c3ccccc3)c2N)cc1` [3e, 6-Amino-5-(4-methoxyphenyl)-N,7-diphenyl-2-(phenylamino)pyrazolo[1,5-a]pyrimidine-3-carboxamide]: the melting point was 257 to 259 °C. Further, the half-inhibitory concentration (IC50) in series [6] (Table 1, compounds 3a-z) is 63.3 ± 4.4 µM.

`CCOC(=O)c1c(-c2ccccc2)nn2c(-c3ccccc3)c(N)c(-c3ccc(OC)cc3)nc12` [3ae, Ethyl 6-amino-5-(4-methoxyphenyl)-2,7-diphenylpyrazolo[1,5-a]pyrimidine-3-carboxylate] showed a melting point of 189 to 190 °C. Moreover, the IC50 in series [6] (Table 2, compounds 3aa-ai) worked out at 116 ± 1.8 µM.

`CCOC(=O)c1c(-c2ccccc2)nn2c(-c3ccc(Cl)cc3)c(N)c(-c3ccc(OC)cc3)nc12` [3af, Ethyl 6-amino-7-(4-chlorophenyl)-5-(4-methoxyphenyl)-2-phenylpyrazolo[1,5-a]pyrimidine-3-carboxylate]: the melting point lay in the range of 226 to 228 °C. Moreover, the 50% inhibitory concentration (IC50) in series [1] is greater than 200 µM. For the same compound, the cytotoxic activity entry in series [2] is listed as “did not possess any cytotoxic activity”. This compound registered an IC50 in series [3] greater than 200 µM. The cytotoxic activity result in series [4] is “did not possess any cytotoxic activity”. In addition, in series [5], the inhibition type result is on record as “competitive inhibition” and the inhibition constant (Ki) was 65 µM. Further, the IC50 in series [6] (Table 2, compounds 3aa-ai) was determined as 65.5 ± 3 µM.

Compound `Nc1c(-c2ccccc2)nc2c(C(=O)Nc3ccccc3)c(Nc3ccccc3)nn2c1-c1ccc(Cl)cc1` [3a, 6-Amino-7-(4-chlorophenyl)-N,5-diphenyl-2-(phenylamino)pyrazolo[1,5-a]pyrimidine-3-carboxamide] registered a melting point of 248 to 249 °C. Moreover, the half-inhibitory concentration (IC50) in series [6] (Table 1, compounds 3a-z) was 37.8 ± 2.5 µM.

For the compound `CCOC(=O)c1c(-c2ccccc2)nn2c(-c3ccc(Br)cc3)c(N)c(-c3ccc(C)cc3)nc12` [3ad, Ethyl 6-amino-7-(4-bromophenyl)-2-phenyl-5-p-tolylpyrazolo[1,5-a]pyrimidine-3-carboxylate], the melting point fell in the range of 230 to 232 °C. For the same compound, the concentration for half-maximal inhibition (IC50) in series [6] (Table 2, compounds 3aa-ai) was determined as 141 ± 7 µM.
